{"source": "patent US12115140B2", "about": "“Method of treating adenoid cystic carcinoma” (THE TRUSTEES OF COLUMBIA UNIVERSITY IN THE CITY OF NEW YORK, priority 2020, dated 2024)", "key": {"[1]": {"tested_on": "CD49f^low, KIT^+ (ductal-like) and CD49f^high, KIT^neg (myoepithelial-like) cells of human ACCs", "test": "Flow cytometry of short-term primary cultures from ACC PDX lines: relative content of ductal-like and myoepithelial-like cells", "format": "cell-based", "details": "10 μM, 7 days; ACCX5M1; direct agonists; vs DMSO"}, "[2]": {"tested_on": "myoepithelial-like cells (CD49f^high, KIT^neg) isolated by FACS from solid tumors", "test": "Sorted myoepithelial-like cells (FACS) stimulated in vitro with direct RAR agonist", "format": "cell-based, human", "details": "ATRA 10 μM (also printed 10 mM), 7 days"}, "[3]": {"tested_on": "CD49f^low, KIT^+ (ductal-like) and CD49f^high, KIT^neg (myoepithelial-like) cells of human ACCs", "test": "Flow cytometry of short-term primary cultures from ACC PDX lines: relative content of ductal-like and myoepithelial-like cells", "format": "cell-based", "details": "for percentage of myoepithelial-like cells (CD49f^high, KIT^neg): ACCX5M1, direct agonists, vs DMSO; for significance of reduction in percentage of CD49f^low, KIT^+ (ductal-like) cells: at both 1 μM and 10 μM, ACCX5M1 and SGTX6, vs NT or DMSO", "text": "From a histological point of view, ACCs are usually characterized by a “bi-phasic differentiation” (i.e., the malignant tissues contain two distinct cell populations, which are commonly referred to as “myoepithelial-like” and “ductal-like” cells). A combination of cell surface markers (CD49f, KIT) have been discovered which enable the differential purification and accurate quantification of the two populations using fluorescence activated cell sorting (FACS). It has further been discovered that myoepithelial-like (CD49f^high, KIT^neg) cells are associated with more aggressive biological properties as compared to ductal-like (CD49f^low, KIT^+) cells when tested for their tumorigenic capacity (i.e., their capacity to sustain the formation of a new tumor upon xeno-transplantation in immuno-deficient mice).\nFIGS. 1A-1F and 2A-2D illustrate the in vitro anti-tumor activity of BMS493 against human ACCs. FIGS. 1A and 1B show the results of a short-term primary culture from a patient-derived xenograft (PDX) line representative of human ACCs with “cribriform” histology (ACCX5M1) treated in vitro with BMS493 (10 μM) for 7 days and then analyzed by flow cytometry. FIGS. 1C and 1D show the results of a short-term primary culture from a patient-derived xenograft (PDX) line representative of human ACCs with “cribriform” histology (SGTX6) treated in vitro with BMS493 (10 μM) for 7 days and then analyzed by flow cytometry. FIGS. 1E and 1F show the results of a short-term primary culture from a patient-derived xenograft (PDX) line representative of human ACCs with “cribriform” histology (ACCX6) treated in vitro with BMS493 (10 μM) for 7 days and then analyzed by flow cytometry.\nFIGS. 3A-3I illustrate the in vitro anti-tumor activity of BMS493 and AGN193109 against human ACCs. FIGS. 3A and 3B show comparison plots of short-term primary cultures from two patient-derived xenograft (PDX) lines representative of human ACCs with “cribriform” histology (SGTX6 and ACCX5M1, respectively), which were treated in vitro for 7 days with either BMS493 or AGN193109 and then analyzed by flow cytometry."}, "[4]": {"tested_on": "human ACC primary cultures (ACCX5M1, ACCX9)", "test": "Cell viability / cytotoxic activity in primary cultures of ACC PDX lines", "format": "cell-based", "details": "for cell viability: ACCX5M1, vs DMSO control cultures, FIG. 3E; for cytotoxic activity: ACCX9 (solid histology), FIG. 3F", "text": "(§1) With reference to FIGS. 3E-3F, combination treatments may be used, based on the use of inverse agonists of RAR/RXR signaling (e.g., BMS493 or AGN193109) as radio-sensitizers and/or chemo-sensitizers (i.e., agents able to increase the cytotoxic activity of radiotherapy and/or chemotherapy)."}, "ACCX9 primary cultures": {"tested_on": "ACCX9 primary cultures", "test": "Microscope images of ACCX9 primary cultures", "format": "cell-based, human", "details": "10 μM, 7 days", "text": "as §1, with “FIGS. 3G, 3H and 3I are microscope images of ACCX9 primary cultures treated with DMSO, BMS493 and AGN193109, respectively. […] With” for “With”"}, "[5]": {"tested_on": "ACCX5M1 organoid cultures, ductal-like (CD49f^low, KIT^+) cells", "test": "Organoid cultures of ACCX5M1 PDX line treated one week: inverse agonists versus neutral antagonist, flow cytometry", "format": "cell-based, human", "details": "for killing of ductal-like (CD49f^low, KIT^+) cells: ACCs cultured in vitro as three-dimensional (3D) organoids", "description": "Further, as shown in FIGS. 6A-10, the efficacies of the inverse agonists BMS493 and AGN193109 were compared against a neutral antagonist (BMS195614). For FIGS. 6A-8, organoid cultures from a patient derived xenograft line (ACCX5M1) were treated for one week with DMSO (as a control), the neutral antagonist (BMS195614, 1 μM, 10 μM) or the inverse agonists (BMS493 1 μM, BMS493 10 μM, AGN193109 10 μM). The graphs display the percentage of KIT+ cells in each culture condition. FIG. 6A is a scatter plot displaying the relative content of myoepithelial-like cells and ductal-like cells in a primary in vitro organoid culture of the ACCX5M1 patient-derived xenograft (PDX) line treated with DMSO for 7 days and analyzed by flow cytometry. FIG. 6B is a scatter plot displaying the relative content of myoepithelial-like cells and ductal-like cells in a primary in vitro organoid culture of the ACCX5M1 patient-derived xenograft (PDX) line treated with the neutral antagonist BMS195614 (1 μM) for 7 days and analyzed by flow cytometry. FIG. 6C is a scatter plot displaying the relative content of myoepithelial-like cells and ductal-like cells in a primary in vitro organoid culture of the ACCX5M1 patient-derived xenograft (PDX) line treated with the neutral antagonist BMS195614 (10 μM) for 7 days and analyzed by flow cytometry.\nFIG. 7A is a scatter plot displaying the relative content of myoepithelial-like cells and ductal-like cells in a primary in vitro organoid culture of the ACCX5M1 patient-derived xenograft (PDX) line treated with the inverse agonist BMS493 (1 μM) after one week. FIG. 7B is a scatter plot displaying the relative content of myoepithelial-like cells and ductal-like cells in a primary in vitro organoid culture of the ACCX5M1 patient-derived xenograft (PDX) line treated with the inverse agonist BMS493 (10 μM) for 7 days and analyzed by flow cytometry. FIG. 7C is a scatter plot displaying the relative content of myoepithelial-like cells and ductal-like cells in a primary in vitro organoid culture of the ACCX5M1 patient-derived xenograft (PDX) line treated with the inverse agonist AGN193109 (10 μM) for 7 days and analyzed by flow cytometry. FIG. 8 is a bar graph comparing the percentage of ductal-like (CD49f^low, KIT^+) cells after one week from each of the treatments of FIGS. 6A-7C. FIG. 9 is a bar graph comparing the percentage of ductal-like (CD49f^low, KIT^+) cells after one week from the treatments of FIGS. 6A, 6C, 7B and 7C. FIG. 10 is a bar graph comparing the percentage of EpCAM^+/DAPI^+ cells (i.e., dead epithelial cells) after one week from each of the treatments of FIGS. 6A-7C. […] It should be noted that in FIGS. 8-10, BMS195614 has been abbreviated as “BMS195” due to the available space in the Figures."}, "[6]": {"tested_on": "human ACC tumor cells (PDX lines SGTX6, ACCX6, ACCX9, ACCX11)", "test": "Percentage of dead tumor cells (EpCAM^+/DAPI^+) in primary cultures of ACC PDX lines by flow cytometry", "format": "cell-based", "text": "(§2) It should be noted that in FIGS. 2A and 2B, the percentage of dead tumor cells is reported as a percentage of the human epithelial cells that incorporate DAPI (i.e. EpCAM^+/DAPI^+) and excludes any contaminant of mouse cells from the primary tissues that were used to generate the cultures (i.e. excludes cells expressing H-2K^d and/or mCd45).\nas §2, with “2C” for “2A”, “2D,” for “2B,”"}, "[7]": {"tested_on": "human ACCs engrafted in mice (ACCX5M1, SGTX6, ACCX9)", "test": "In vivo growth kinetics of ACC PDX lines engrafted subcutaneously in NSG immune-deficient mice", "description": "Three independent patient-derived xenograft (PDX) lines representative of human ACCs (ACCX5M1, SGTX6, ACCX9) were engrafted in the subcutaneous (s.c.) tissue of NOD/SCID/IL2Rγ^−/− (NS G) immune-deficient mice and left growing until they reached a size of approximately 700 mm^3. Tumor-bearing mice were then divided into two cohorts, one of which was treated with BMS493 (40 mg/kg X 3-4 days/week), while the other received only DMSO (i.e., the solvent used as a vehicle to resuspend BMS493)."}, "[8]": {"details": "7 days, SGTX6 and ACCX5M1, FIGS. 3A, 3B"}, "[9]": {"details": "ACCX5M1 organoids, one week, FIG. 8"}, "[10]": {"details": "10 μM, 7 days, ACCX5M1, SGTX6, ACCX6 (cribriform), vs untreated"}}, "data": [{"molecule": "CC1=C(/C=C/C(C)=C/C=C/C(C)=C/C(=O)O)C(C)(C)CCC1", "note": "[ATRA, all-trans retinoic acid]", "values": [{"measurement": "percentage of ductal-like cells (CD49f^low, KIT^+)", "setting": "[1]", "result": "increase"}, {"measurement": "differentiation of sorted myoepithelial-like cells into ductal-like cells", "setting": "[2]", "result": "differentiation of myoepithelial-like cells"}, {"measurement": "percentage of myoepithelial-like cells (CD49f^high, KIT^neg)", "setting": "[3]; 10 μM, 7 days", "result": "reduction"}]}, {"molecule": "C=C(c1ccc(C(=O)O)cc1)c1cc2c(cc1C)C(C)(C)CCC2(C)C", "note": "[bexarotene]", "values": [{"measurement": "percentage of ductal-like cells (CD49f^low, KIT^+)", "setting": "[1]", "result": "increase"}, {"measurement": "percentage of myoepithelial-like cells (CD49f^high, KIT^neg)", "setting": "[3]; 10 μM, 7 days", "result": "reduction"}]}, {"molecule": "Cc1ccc(C2=CCC(C)(C)c3ccc(C#Cc4ccc(C(=O)O)cc4)cc32)cc1", "note": "[AGN193109, 4-[2-[5,6-Dihydro-5,5-dimethyl-8-(4-methylphenyl)-2-naphthalenyl]ethynyl]benzoic acid]", "values": [{"measurement": "cell viability", "setting": "[4]", "result": "reduction in cell viability"}, {"measurement": "cytotoxic activity", "setting": "[4]", "result": "clear cytotoxic activity"}, {"measurement": "cell morphology in microscope images", "setting": "ACCX9 primary cultures", "result": "widespread cell fragmentation"}, {"measurement": "percentage of CD49f^low, KIT^+ (ductal-like) cells", "setting": "[3]; [8]", "result": "dramatic reduction"}, {"measurement": "significance of reduction in percentage of CD49f^low, KIT^+ (ductal-like) cells", "setting": "[3]", "result": "statistically significant"}, {"measurement": "killing of ductal-like (CD49f^low, KIT^+) cells", "setting": "[5]", "result": "able to selectively kill"}]}, {"molecule": "CC1(C)CC=C(c2cnc3ccccc3c2)c2cc(C(=O)Nc3ccc(C(=O)O)cc3)ccc21", "note": "[BMS195614]", "values": [{"measurement": "change in percentage of ductal-like (CD49f^low, KIT^+) cells on raising concentration from 1 μM to 10 μM", "setting": "[5]; [9]", "result": "does not translate in a significant decrease"}, {"measurement": "percentage of ductal-like (CD49f^low, KIT^+) cells relative to BMS493 and AGN193109", "setting": "[5]; [9]", "result": "remains statistically superior"}, {"measurement": "anti-tumor effect relative to inverse agonists BMS493 and AGN193109", "setting": "[5]; at both doses, 1 μM and 10 μM", "result": "clearly systematically inferior"}]}, {"molecule": "CC1(C)CC=C(C#Cc2ccccc2)c2cc(/C=C/c3ccc(C(=O)O)cc3)ccc21", "note": "[BMS493, 4-[(1E)-2-[5,6-Dihydro-5,5-dimethyl-8-(2-phenylethynyl)-2-naphthalenyl]ethenyl]benzoic acid]", "values": [{"measurement": "cell viability", "setting": "[4]", "result": "reduction in cell viability"}, {"measurement": "cytotoxic activity", "setting": "[4]", "result": "clear cytotoxic activity"}, {"measurement": "cell morphology in microscope images", "setting": "ACCX9 primary cultures", "result": "widespread cell fragmentation"}, {"measurement": "percentage of CD49f^high, KIT^neg (myoepithelial-like) cells", "setting": "[3]; [10]", "result": "corresponding relative increase"}, {"measurement": "percentage of CD49f^low, KIT^+ (ductal-like) cells", "setting": "[3]; [10]", "result": "dramatic reduction"}, {"measurement": "percentage of CD49f^low, KIT^+ (ductal-like) cells", "setting": "[3]; [8]", "result": "dramatic reduction"}, {"measurement": "significance of reduction in percentage of CD49f^low, KIT^+ (ductal-like) cells", "setting": "[3]", "result": "statistically significant"}, {"measurement": "percentage of dead (DAPI^+) cells", "setting": "[6]; ACCX9 and ACCX11 (solid histology)", "result": "substantial increase"}, {"measurement": "percentage of dead tumor cells (EpCAM^+/DAPI^+)", "setting": "[6]; SGTX6 and ACCX6 (cribriform), vs NT, DMSO or ATRA", "result": "substantial increase"}, {"measurement": "percentage of dead cells (EpCAM^+/DAPI^+)", "setting": "[5]; ACCX5M1 organoids, one week, BMS493 10 μM, BMS195614 1 μM, 10 μM, FIG. 10", "result": "significant increase"}, {"measurement": "killing of ductal-like (CD49f^low, KIT^+) cells", "setting": "[5]", "result": "able to selectively kill"}, {"measurement": "tumor growth (change in tumor volume over time)", "setting": "[7]; 40 mg/kg X 3-4 days/week, ACCX5M1, SGTX6, ACCX9 s.c. in NSG mice, vs DMSO", "result": "either growth arrest or tumor shrinkage"}, {"measurement": "activity against human ACCs engrafted in mice", "setting": "[7]; dosing regimens from 10 mg/kg (once daily X 21 days) up to 40 mg/kg (4 times/week X 3 weeks)", "result": "active"}]}]}
